# From US20140357713A1, “ANTIMICROBIAL COMPOUNDS AND METHODS OF USE” (NexMed Holdings, Inc., priority 2012, published 2014)
# Structures can show the parent of a compound that is named as a salt. Where two headings read alike, the source gives them in different places.
# Legend:
# Experiment in all cases: MIC assay with different strains, Example 35
# Assay type in all cases: cell-based
# [1] = tested on: Enterococcus faecalis (ATCC 51299)
# In short: (§1)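 Steps: adjust each suspension to roughly 10^7 to 10^8 CFU/mL; dilute 1:200 in Mueller Hinton broth; incubate with test product; examine tubes for turbidity; streak product-clouded media onto agar to verify growth or its absence.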
# [2] = tested on: Micrococcus luteus (ATCC 4698)
# In short: as §1
# [3] = tested on: Staphylococcus epidermidis (ATCC 12228)
# In short: as §1
# [4] = tested on: Enterobacter cloacae (ATCC 13047)
# In short: as §1
# [5] = tested on: Burkholderia cepacia (ATCC 25416)
# In short: as §1
# [6] = tested on: Staphylococcus aureus (ATCC 6538)
# In short: as §1
# [7] = tested on: Enterococcus faecium (ATCC 19434)
# In short: as §1
structure (smiles),measurement,setting,value
"CCCCCCCCCCCCOC(=O)C(C)NC.Cl (stereo not shown) [Nex-59, Dodecyl 2-(methylamino)propanoate hydrochloride]",MIC,"[1]; Enterococcus faecalis, ATCC51299, Table 19 summary, read-out: MIC",400 µg/mL
same,MIC,[1]; Example 35,0.04%
same,Growth/no growth,[1]; Sample Concentration 0.01%,Growth
same,Growth/no growth,[1]; Sample Concentration 0.02%,Growth
same,Growth/no growth,[1]; Sample Concentration 0.04%,No
same,Growth/no growth,[1]; Sample Concentration 0.08%,No
same,Growth/no growth,[1]; Sample Concentration 0.16%,No
same,Growth/no growth,[1]; Sample Concentration 0.32%,No
same,Growth/no growth,[1]; Sample Concentration 0.63%,No
same,Growth/no growth,[1]; Sample Concentration 1.25%,No
same,Growth/no growth,[1]; Sample Concentration 2.5%,No
same,MIC,[2]; Example 35,0.02%
same,MIC,"[2]; Micrococcus luteus, ATCC4698, Table 19 summary, read-out: MIC",200 µg/mL
same,Growth/no growth,[2]; Sample Concentration 0.01%,Growth
same,Growth/no growth,[2]; Sample Concentration 0.02%,No
same,Growth/no growth,[2]; Sample Concentration 0.04%,No
same,Growth/no growth,[2]; Sample Concentration 0.08%,No
same,Growth/no growth,[2]; Sample Concentration 0.16%,No
same,Growth/no growth,[2]; Sample Concentration 0.32%,No
same,Growth/no growth,[2]; Sample Concentration 0.63%,No
same,Growth/no growth,[2]; Sample Concentration 1.25%,No
same,Growth/no growth,[2]; Sample Concentration 2.5%,No
same,MIC,[3]; Example 35,0.02%
same,Growth/no growth,[3]; Sample Concentration 0.01%,Growth
same,Growth/no growth,[3]; Sample Concentration 0.02%,No
same,Growth/no growth,[3]; Sample Concentration 0.04%,No
same,Growth/no growth,[3]; Sample Concentration 0.08%,No
same,Growth/no growth,[3]; Sample Concentration 0.16%,No
same,Growth/no growth,[3]; Sample Concentration 0.32%,No
same,Growth/no growth,[3]; Sample Concentration 0.63%,No
same,Growth/no growth,[3]; Sample Concentration 1.25%,No
same,Growth/no growth,[3]; Sample Concentration 2.5%,No
same,MIC,"[3]; Staphylococcus epidermidis, ATCC12228, Table 19 summary, read-out: MIC",200 µg/mL
same,MIC,"[4]; Enterobacter cloacae, ATCC13047, Table 19 summary, read-out: MIC",1600 µg/mL
same,MIC,[4]; Example 35,0.16%
same,Growth/no growth,[4]; Sample Concentration 0.01%,Growth
same,Growth/no growth,[4]; Sample Concentration 0.02%,Growth
same,Growth/no growth,[4]; Sample Concentration 0.04%,Growth
same,Growth/no growth,[4]; Sample Concentration 0.08%,Growth
same,MIC,"[5]; Burkholderia cepacia, ATCC25416, Table 19 summary, read-out: MIC",25000 µg/mL
same,MIC,[5]; Example 35,2.5%
same,Growth/no growth,[5]; Sample Concentration 0.01%,Growth
same,Growth/no growth,[5]; Sample Concentration 0.02%,Growth
same,Growth/no growth,[5]; Sample Concentration 0.04%,Growth
same,Growth/no growth,[5]; Sample Concentration 0.08%,Growth
same,Growth/no growth,[5]; Sample Concentration 0.16%,Growth
same,Growth/no growth,[5]; Sample Concentration 0.32%,Growth
same,Growth/no growth,[5]; Sample Concentration 0.63%,Growth
same,Growth/no growth,[5]; Sample Concentration 1.25%,Growth
same,MIC,[6]; Example 35,0.04%
same,Growth/no growth,[6]; Sample Concentration 0.01%,Growth
same,Growth/no growth,[6]; Sample Concentration 0.02%,Growth
same,MIC,"[6]; Staphylococcus aureus, ATCC6538, Table 19 summary, read-out: MIC",400 µg/mL
same,MIC,"[7]; Enterococcus faecium, ATCC19434, Table 19 summary, read-out: MIC",400 µg/mL
same,MIC,[7]; Example 35,0.04%
same,Growth/no growth,[7]; Sample Concentration 0.01%,Growth
same,Growth/no growth,[7]; Sample Concentration 0.02%,Growth
"CCCCCCCCCCCCOC(=O)C(C)N(C)C (stereo not shown) [Nex-05, Dodecyl 2-(dimethylamino)propanoate hydrochloride]",MIC,[1]; Example 35,0.313%
same,Growth/no growth,[1]; Sample Concentration 0.039%,Growth
same,Growth/no growth,[1]; Sample Concentration 0.078%,Growth
same,Growth/no growth,[1]; Sample Concentration 0.156%,Growth
same,MIC,[2]; Example 35,0.313%
same,Growth/no growth,[2]; Sample Concentration 0.039%,Growth
same,Growth/no growth,[2]; Sample Concentration 0.078%,Growth
same,Growth/no growth,[2]; Sample Concentration 0.156%,Growth
same,MIC,[3]; Example 35,0.313%
same,Growth/no growth,[3]; Sample Concentration 0.039%,Growth
same,Growth/no growth,[3]; Sample Concentration 0.078%,Growth
same,Growth/no growth,[3]; Sample Concentration 0.156%,Growth
same,MIC,[4]; Example 35,0.625%
same,Growth/no growth,[4]; Sample Concentration 0.039%,Growth
same,Growth/no growth,[4]; Sample Concentration 0.078%,Growth
same,Growth/no growth,[4]; Sample Concentration 0.156%,Growth
same,Growth/no growth,[4]; Sample Concentration 0.313%,Growth
same,MIC,[5]; Example 35,2.5%
same,Growth/no growth,[5]; Sample Concentration 0.039%,Growth
same,Growth/no growth,[5]; Sample Concentration 0.078%,Growth
same,Growth/no growth,[5]; Sample Concentration 0.156%,Growth
same,Growth/no growth,[5]; Sample Concentration 0.313%,Growth
same,Growth/no growth,[5]; Sample Concentration 0.625%,Growth
same,Growth/no growth,[5]; Sample Concentration 1.25%,Growth
same,MIC,[6]; Example 35,2.5%
same,Growth/no growth,[6]; Sample Concentration 0.039%,Growth
same,Growth/no growth,[6]; Sample Concentration 0.078%,Growth
same,Growth/no growth,[6]; Sample Concentration 0.156%,Growth
same,Growth/no growth,[6]; Sample Concentration 0.313%,Growth
same,Growth/no growth,[6]; Sample Concentration 0.625%,Growth
same,Growth/no growth,[6]; Sample Concentration 1.25%,Growth
